Measured values taken from patent EP4745135A1 (Gluetacs Therapeutics (Shanghai) Co., Ltd., priority 2023, dated 2025).

Experiments:
[1] = test system: GSPT1; assay: Western blot, degradation of substrate protein in hPBMCs; type: cell-based, Human; conditions: Western blot, 24 hours of compound treatment, compounds tested at 50 nM and 500 nM (concentration for the table not stated)
[2] = target: T1, human Cereblon WT GST-tagged protein (Homo sapiens, UniProt Q96SW2); assay: CRBN-binding affinity, HTRF (CEREBLON BINDING kit); conditions: for inhibition at 0.5 µM: read-out: Inhibition Rate at 0.5 µM (%); for inhibition at 2 µM: read-out: Inhibition Rate at 2 µM (%)
T1 construct: purchased CISBIO 64BDCRBNPEH

[3] = target: T2, CK1α (Homo sapiens, UniProt P48729+Q96SW2); assay: Western blot, degradation of substrate protein in hPBMCs; type: cell-based; conditions: Western blot, 24 hours of compound treatment, compounds tested at 50 nM and 500 nM (concentration for the table not stated)
T2 construct: effects of the compounds of the present disclosure on the expression of target proteins in cells; endogenous in cells; host or cells: human PBMCs (Milecell Biotechnologies)

[4] = target: T3, WEE1 (Homo sapiens, UniProt P30291+Q96SW2); assay: as above; type: cell-based; conditions: Western blot, 24 hours of compound treatment, compounds tested at 50 nM and 500 nM (concentration for the table not stated)
T3 construct: effects of the compounds of the present disclosure on the expression of target proteins in cells; endogenous in cells; host or cells: human PBMCs (Milecell Biotechnologies)

[5] = target: T4, IKZF1 (Homo sapiens, UniProt Q13422+Q96SW2); assay: as above; type: cell-based; conditions: Western blot, 24 hours of compound treatment, compounds tested at 50 nM and 500 nM (concentration for the table not stated)
T4 construct: effects of the compounds of the present disclosure on the expression of target proteins in cells; endogenous in cells; host or cells: human PBMCs (Milecell Biotechnologies)

[6] = target: T5, IKZF2 (Homo sapiens, UniProt Q96SW2+Q9UKS7); assay: as above; type: cell-based; conditions: Western blot, 24 hours of compound treatment, compounds tested at 50 nM and 500 nM (concentration for the table not stated)
T5 construct: effects of the compounds of the present disclosure on the expression of target proteins in cells; endogenous in cells; host or cells: human PBMCs (Milecell Biotechnologies)

[7] = target: T6, IKZF3 (Homo sapiens, UniProt Q96SW2+Q9UKT9); assay: as above; type: cell-based; conditions: Western blot, 24 hours of compound treatment, compounds tested at 50 nM and 500 nM (concentration for the table not stated)
T6 construct: effects of the compounds of the present disclosure on the expression of target proteins in cells; endogenous in cells; host or cells: human PBMCs (Milecell Biotechnologies)
T6 sequence (Q9UKT9 whole entry): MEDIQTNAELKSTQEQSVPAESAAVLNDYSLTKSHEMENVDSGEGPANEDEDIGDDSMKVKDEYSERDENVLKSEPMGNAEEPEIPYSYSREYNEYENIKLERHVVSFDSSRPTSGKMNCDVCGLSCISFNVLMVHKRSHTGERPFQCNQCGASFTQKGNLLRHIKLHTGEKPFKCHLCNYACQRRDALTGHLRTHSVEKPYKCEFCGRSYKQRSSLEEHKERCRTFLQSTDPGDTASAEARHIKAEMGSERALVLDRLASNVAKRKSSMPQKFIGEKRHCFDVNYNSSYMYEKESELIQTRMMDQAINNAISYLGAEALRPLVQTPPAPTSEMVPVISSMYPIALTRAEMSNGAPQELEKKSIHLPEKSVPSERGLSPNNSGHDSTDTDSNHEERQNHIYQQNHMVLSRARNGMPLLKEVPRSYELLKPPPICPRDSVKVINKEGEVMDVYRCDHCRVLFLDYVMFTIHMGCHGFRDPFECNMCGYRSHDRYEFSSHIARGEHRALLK
T6 sequence (Q96SW2 whole entry): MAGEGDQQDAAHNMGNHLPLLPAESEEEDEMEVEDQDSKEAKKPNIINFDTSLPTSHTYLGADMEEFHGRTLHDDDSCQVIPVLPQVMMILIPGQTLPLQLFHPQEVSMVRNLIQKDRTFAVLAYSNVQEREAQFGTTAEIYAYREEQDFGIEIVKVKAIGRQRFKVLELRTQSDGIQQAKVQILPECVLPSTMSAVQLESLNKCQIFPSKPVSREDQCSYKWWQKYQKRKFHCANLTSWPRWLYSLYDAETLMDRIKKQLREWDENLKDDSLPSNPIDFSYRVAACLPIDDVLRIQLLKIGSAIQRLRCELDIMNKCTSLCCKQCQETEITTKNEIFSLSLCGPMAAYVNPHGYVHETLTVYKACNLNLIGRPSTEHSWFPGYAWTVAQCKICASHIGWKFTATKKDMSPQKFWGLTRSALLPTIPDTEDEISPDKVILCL
T6 sequence (Q16531 whole entry partner): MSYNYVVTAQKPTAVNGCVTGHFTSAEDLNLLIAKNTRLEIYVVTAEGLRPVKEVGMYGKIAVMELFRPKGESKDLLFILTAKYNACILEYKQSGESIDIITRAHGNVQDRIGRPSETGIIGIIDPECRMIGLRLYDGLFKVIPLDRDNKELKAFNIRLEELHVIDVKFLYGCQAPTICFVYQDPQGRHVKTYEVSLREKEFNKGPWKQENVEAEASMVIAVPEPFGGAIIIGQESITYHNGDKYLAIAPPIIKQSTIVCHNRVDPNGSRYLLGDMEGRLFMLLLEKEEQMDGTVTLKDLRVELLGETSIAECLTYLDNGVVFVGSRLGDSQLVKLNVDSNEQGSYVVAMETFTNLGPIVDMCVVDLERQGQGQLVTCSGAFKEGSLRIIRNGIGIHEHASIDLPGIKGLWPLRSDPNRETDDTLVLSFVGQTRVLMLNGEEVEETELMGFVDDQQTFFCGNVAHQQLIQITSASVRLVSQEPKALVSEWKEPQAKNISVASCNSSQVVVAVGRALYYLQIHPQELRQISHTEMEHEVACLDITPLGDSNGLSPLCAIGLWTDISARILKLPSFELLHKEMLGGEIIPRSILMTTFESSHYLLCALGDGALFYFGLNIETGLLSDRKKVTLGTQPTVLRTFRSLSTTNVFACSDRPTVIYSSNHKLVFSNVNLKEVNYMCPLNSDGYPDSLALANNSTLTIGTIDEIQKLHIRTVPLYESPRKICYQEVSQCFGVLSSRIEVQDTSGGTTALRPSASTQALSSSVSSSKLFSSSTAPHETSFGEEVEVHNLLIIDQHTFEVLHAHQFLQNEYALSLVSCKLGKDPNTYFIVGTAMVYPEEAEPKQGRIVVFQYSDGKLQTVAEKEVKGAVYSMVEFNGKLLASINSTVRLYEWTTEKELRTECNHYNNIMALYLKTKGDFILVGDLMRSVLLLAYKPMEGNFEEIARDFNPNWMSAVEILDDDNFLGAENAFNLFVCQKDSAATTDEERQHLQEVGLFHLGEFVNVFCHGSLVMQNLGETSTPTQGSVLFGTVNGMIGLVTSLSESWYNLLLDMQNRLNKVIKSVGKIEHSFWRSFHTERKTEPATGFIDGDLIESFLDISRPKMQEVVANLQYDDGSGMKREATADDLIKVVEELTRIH

T5 sequence (Q9UKS7 whole entry): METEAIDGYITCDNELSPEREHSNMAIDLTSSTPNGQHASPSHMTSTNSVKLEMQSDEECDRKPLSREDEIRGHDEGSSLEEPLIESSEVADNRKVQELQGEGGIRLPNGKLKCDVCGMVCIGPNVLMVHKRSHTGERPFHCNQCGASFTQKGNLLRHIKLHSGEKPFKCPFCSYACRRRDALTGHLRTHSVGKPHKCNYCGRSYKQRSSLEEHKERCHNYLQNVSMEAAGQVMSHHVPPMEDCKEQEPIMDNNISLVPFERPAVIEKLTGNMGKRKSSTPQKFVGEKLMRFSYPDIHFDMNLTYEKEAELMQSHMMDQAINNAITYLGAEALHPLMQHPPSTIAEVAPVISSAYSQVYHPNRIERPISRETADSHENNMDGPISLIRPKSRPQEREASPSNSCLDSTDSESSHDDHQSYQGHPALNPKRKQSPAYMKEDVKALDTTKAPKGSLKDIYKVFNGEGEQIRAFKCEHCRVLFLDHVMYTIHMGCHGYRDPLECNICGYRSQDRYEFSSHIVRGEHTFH
T5 sequence (Q96SW2 whole entry): as the sequence (Q96SW2 whole entry) above
T5 sequence (Q16531 whole entry partner): as the sequence (Q16531 whole entry partner) above
T2 sequence (P48729 whole entry): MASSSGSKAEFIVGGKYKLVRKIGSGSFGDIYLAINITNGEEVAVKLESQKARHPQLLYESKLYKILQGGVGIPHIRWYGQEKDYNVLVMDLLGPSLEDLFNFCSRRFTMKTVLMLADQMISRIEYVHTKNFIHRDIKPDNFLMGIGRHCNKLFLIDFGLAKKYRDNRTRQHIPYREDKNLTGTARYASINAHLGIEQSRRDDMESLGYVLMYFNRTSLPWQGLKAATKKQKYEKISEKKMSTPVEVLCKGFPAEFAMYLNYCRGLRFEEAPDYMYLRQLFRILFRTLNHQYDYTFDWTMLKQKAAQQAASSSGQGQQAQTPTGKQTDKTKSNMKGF
T2 sequence (Q96SW2 whole entry): as the sequence (Q96SW2 whole entry) above
T2 sequence (Q16531 whole entry partner): as the sequence (Q16531 whole entry partner) above
T4 sequence (Q13422 whole entry): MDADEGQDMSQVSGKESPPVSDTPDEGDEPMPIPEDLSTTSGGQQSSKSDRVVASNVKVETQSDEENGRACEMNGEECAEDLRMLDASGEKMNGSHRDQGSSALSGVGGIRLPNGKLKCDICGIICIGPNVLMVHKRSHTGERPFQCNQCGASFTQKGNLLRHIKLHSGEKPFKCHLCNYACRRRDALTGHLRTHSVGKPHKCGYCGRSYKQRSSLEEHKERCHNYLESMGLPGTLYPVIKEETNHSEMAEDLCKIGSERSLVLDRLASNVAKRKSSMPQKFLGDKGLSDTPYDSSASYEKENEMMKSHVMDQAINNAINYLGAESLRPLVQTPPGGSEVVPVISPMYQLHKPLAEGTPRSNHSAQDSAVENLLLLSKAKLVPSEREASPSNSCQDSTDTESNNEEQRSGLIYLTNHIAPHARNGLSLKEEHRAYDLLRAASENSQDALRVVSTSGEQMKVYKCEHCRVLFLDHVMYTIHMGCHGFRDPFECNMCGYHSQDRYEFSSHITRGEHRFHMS
T4 sequence (Q96SW2 whole entry): as the sequence (Q96SW2 whole entry) above
T4 sequence (Q16531 whole entry partner): as the sequence (Q16531 whole entry partner) above
T1 sequence (Q96SW2 whole entry): as the sequence (Q96SW2 whole entry) above
T3 sequence (P30291 whole entry): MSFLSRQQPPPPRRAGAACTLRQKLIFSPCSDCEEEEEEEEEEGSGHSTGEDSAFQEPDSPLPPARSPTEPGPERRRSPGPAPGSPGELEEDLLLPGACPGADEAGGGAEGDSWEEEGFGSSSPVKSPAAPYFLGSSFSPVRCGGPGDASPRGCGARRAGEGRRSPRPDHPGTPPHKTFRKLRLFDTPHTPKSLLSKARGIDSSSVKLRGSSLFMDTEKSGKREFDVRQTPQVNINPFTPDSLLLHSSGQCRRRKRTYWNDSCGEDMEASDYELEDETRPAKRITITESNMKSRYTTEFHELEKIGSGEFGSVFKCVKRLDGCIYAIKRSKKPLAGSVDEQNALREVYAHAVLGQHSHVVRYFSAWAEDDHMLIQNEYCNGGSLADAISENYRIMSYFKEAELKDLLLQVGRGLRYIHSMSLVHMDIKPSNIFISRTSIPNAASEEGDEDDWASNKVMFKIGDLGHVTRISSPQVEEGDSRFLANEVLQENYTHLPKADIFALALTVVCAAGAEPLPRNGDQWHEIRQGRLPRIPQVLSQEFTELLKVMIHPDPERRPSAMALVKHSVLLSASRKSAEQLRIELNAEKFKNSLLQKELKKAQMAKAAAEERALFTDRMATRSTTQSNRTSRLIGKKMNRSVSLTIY
T3 sequence (Q96SW2 whole entry): as the sequence (Q96SW2 whole entry) above
T3 sequence (Q16531 whole entry partner): as the sequence (Q16531 whole entry partner) above

inhibition at 0.5 µM [2] [%]	inhibition at 2 µM [2] [%]	SMILES	GSPT1 substrate protein remaining % [1]	CK1α substrate protein remaining % [3]	Wee1 substrate protein remaining % [4]	IKZF 1 substrate protein remaining % [5]	IKZF2 substrate protein remaining % [6]	IKZF3 substrate protein remaining % [7]
40 to 53	80 to 100	O=C1CCC(N2Cc3c(CN4CCN(c5ccc(Br)cc5)CC4)cccc3C2=S)C(=O)N1 (stereo not shown) [GT-08496, 3-(4-((4-(4-bromophenyl)piperazin-1-yl)methyl)-1-thioxoisoindolin-2-yl)piperidine-2,6-dione]	A (0% ≤ substrate protein remaining % ≤ 80%)	B (80%< substrate protein remaining %≤ 100%)	A (0% ≤ substrate protein remaining % ≤ 80%)	A (0% ≤ substrate protein remaining % ≤ 80%)	A (0% ≤ substrate protein remaining % ≤ 80%)	B (80%< substrate protein remaining %≤ 100%)
40 to 53	60 to 80	Cc1cccc(N2CCN(Cc3cccc4c3CN(C3CCC(=O)NC3=O)C4=S)CC2)c1 (stereo not shown) [GT-08498, 3-(1-thioxo-4-((4-(m-tolyl)piperazin-1-yl)methyl)isoindolin-2-yl)piperidine-2,6-dione]	A (0% ≤ substrate protein remaining % ≤ 80%)	B (80%< substrate protein remaining %≤ 100%)	A (0% ≤ substrate protein remaining % ≤ 80%)	B (80%< substrate protein remaining %≤ 100%)	A (0% ≤ substrate protein remaining % ≤ 80%)	B (80%< substrate protein remaining %≤ 100%)
30 to 40	53 to 60	Cc1ccc(N2CCN(Cc3cccc4c3CN(C3CCC(=O)NC3=O)C4=S)CC2)cc1 (stereo not shown) [GT-08499, 3-(1-thioxo-4-((4-(p-tolyl)piperazin-1-yl)methyl)isoindolin-2-yl)piperidine-2,6-dione]	A (0% ≤ substrate protein remaining % ≤ 80%)	B (80%< substrate protein remaining %≤ 100%)	A (0% ≤ substrate protein remaining % ≤ 80%)	B (80%< substrate protein remaining %≤ 100%)	A (0% ≤ substrate protein remaining % ≤ 80%)	B (80%< substrate protein remaining %≤ 100%)
40 to 53	60 to 80	O=C1CCC(N2Cc3c(CN4CCN(c5ccc(Cl)c(Cl)c5)CC4)cccc3C2=S)C(=O)N1 (stereo not shown) [GT-08502, 3-(4-((4-(3,4-dichlorophenyl)piperazin-1-yl)methyl)-1-thioxoisoindolin-2-yl)piperidine-2,6-dione]	A (0% ≤ substrate protein remaining % ≤ 80%)	B (80%< substrate protein remaining %≤ 100%)	A (0% ≤ substrate protein remaining % ≤ 80%)	B (80%< substrate protein remaining %≤ 100%)	A (0% ≤ substrate protein remaining % ≤ 80%)	B (80%< substrate protein remaining %≤ 100%)
40 to 53	60 to 80	O=C1CCC(N2Cc3c(CN4CCN(c5ccc(F)cc5F)CC4)cccc3C2=S)C(=O)N1 (stereo not shown) [GT-08503, 3-(4-((4-(2,4-difluorophenyl)piperazin-1-yl)methyl)-1-thioxoisoindolin-2-yl)piperidine-2,6-dione]	A (0% ≤ substrate protein remaining % ≤ 80%)	B (80%< substrate protein remaining %≤ 100%)	A (0% ≤ substrate protein remaining % ≤ 80%)	B (80%< substrate protein remaining %≤ 100%)	B (80%< substrate protein remaining %≤ 100%)	B (80%< substrate protein remaining %≤ 100%)
